In US9592223B2, “Small molecule inhibitors of MALT1” (Cornell University, priority 2012, dated 2017):

What was measured:
[1] = tested on: ABC-DLBCL cell lines HBL-1 and TMD8 vs GCB-DLBCL cell line OCI-Ly1; experiment: Cell proliferation of selected hits and analogs, ATP-based metabolic luminescent assay; parameters: species or system human
Description: MALT1 activity plays an important role in selectively maintaining proliferation of ABC-DLBCL cell lines (Ngo et al., 2006). Accordingly ABC and GCB-DLBCL cell lines present differential sensitivity to MALT1 cleavage inhibition by the peptide Z-VRPR-FMK (Ferch et al., 2009; Hailfinger et al., 2009; Rebeaud et al., 2008). To determine whether candidate small molecules display a similar profile two ABC-DLBCL cell lines, HBL-1 and TMD8, and one GCB-DLBCL cell line, OCI-Ly1, were exposed to increasing concentrations of the nineteen selected molecules. Cell proliferation was measured 48 hr after exposure to a single dose of compound using an ATP-based metabolic luminescent assay (summarized in FIG. 1C).
A total of 704 analog compounds from available libraries with similarity score ≧70% (Tanimoto similarity functions) were screened by LZ-MALT1 fluorescence assay.
Cell proliferation was determined by ATP quantification using a luminescent method (CellTiter-Glo, Promega, Madison, Wis.) and Trypan blue dye-exclusion (Sigma, St. Louis, Mo.). […]
DLBCL cell lines were grown in exponential growth conditions during the 48 hr of treatment. Cell proliferation was determined by ATP quantification using a luminescent method (CellTiter-Glo, Promega, Madison, Wis.) and Trypan blue dye-exclusion (Sigma, St. Louis, Mo.). […]

Caspase-9 = Caspase-9 (Homo sapiens, UniProt P55211); experiment: Caspase selectivity; type: biochemical
[2] = target: T1, paracaspase domain of MALT1 (residues 329-728) (Homo sapiens, UniProt Q9UDY8); experiment: HSQC NMR binding; conditions: HSQC titration
T1 construct: labeled MALT1 (329-728) was expressed in BL21 (DE3) E. coli; made in house; host or cells: E. coli BL21 (DE3)
Method: Uniformly ^15N and ^13C labeled MALT1 (329-728) was expressed in BL21 (DE3) E. coli growing in M9 medium containing 1 g/l [^15N]ammonium chloride and 3 g/l [^13C]glucose (Cambridge Isotope Labs, Andover, Mass.) and purified from E. coli cell lysate as described in (Wiesmann et al., 2012).
Standard 2D ^1H ^13C NMR spectra of MALT1 (329-728) were recorded in samples containing 10.0 mg/ml protein in 50 mM HEPES (pH 7.5), 50 mM NaCl, and 10% D2O. NMR spectroscopy experiments were recorded on Bruker AV 500 MHz spectrometer (Bruker, Billerica, Mass.), at 310K.
Standard 2D ^1H ^15N HSQC spectra of MALT1 (329-728) were recorded in samples containing 70 μM protein in 25 mM Tris pH 7.5, 250 mM NaCl, 5 mM DTT, 10% D2O, 0.02% NaN3, 2% DMSO. HSQCs were run on a 600 MHz Varian (Varian, Palo Alto, Calif.) at 37° C.

c-REL = c-REL flow cytometry of whole cells or isolated nuclei, HBL-1 cells; type: cell-based, human; conditions: 200 nM MI-2 or 50 μM Z-VRPR-FMK, 24 hr
Method: MALT1 mediates c-REL translocation to the nucleus following BCR stimulation (Ferch et al., 2007). […] This selectivity towards c-REL had also been previously shown in MALT1 knockout mice and after MALT1 cleavage inhibition by the MALT1 blocking peptide Z-VRPR-FMK (Ferch et al., 2009; Ferch et al., 2007; Hailfinger et al., 2011).
[…] was studied by flow cytometry. Cells were treated as indicated and total cells or isolated nuclei were prepared and stained for c-REL. Total cells were fixed and permeabilized using the Intrastain kit from Dako (Glostrup, Denmark). For nuclei extraction, cells were resuspended in cold nuclei extraction buffer (320 mM sucrose, 5 mM MgCl2, 10 mM HEPES, 1% Triton X-100 at pH 7.4), incubated for 10 min on ice and washed twice with nuclei wash buffer (320 mM sucrose, 5 mM MgCl2, 10 mM HEPES at pH 7.4, no Triton X-100). Nuclei yield and integrity were confirmed by microscopic examination with trypan blue staining. For labeling, nuclei wash buffer was supplemented with 1% BSA, 0.1% sodium azide and 1:100 c-REL antibody (Cell Signaling). Cells were washed then incubated with Alexa Fluor-488 conjugated secondary antibodies from Invitrogen. Cells were washed again and stained with DAPI followed by flow cytometry.

[3] = tested on: ABC-DLBCL cell lines (HBL1 and TMD8); experiment: Caspase-3/7 cleavage assay for apoptosis; type: cell-based, human

T1 sequence (Q9UDY8 329-728): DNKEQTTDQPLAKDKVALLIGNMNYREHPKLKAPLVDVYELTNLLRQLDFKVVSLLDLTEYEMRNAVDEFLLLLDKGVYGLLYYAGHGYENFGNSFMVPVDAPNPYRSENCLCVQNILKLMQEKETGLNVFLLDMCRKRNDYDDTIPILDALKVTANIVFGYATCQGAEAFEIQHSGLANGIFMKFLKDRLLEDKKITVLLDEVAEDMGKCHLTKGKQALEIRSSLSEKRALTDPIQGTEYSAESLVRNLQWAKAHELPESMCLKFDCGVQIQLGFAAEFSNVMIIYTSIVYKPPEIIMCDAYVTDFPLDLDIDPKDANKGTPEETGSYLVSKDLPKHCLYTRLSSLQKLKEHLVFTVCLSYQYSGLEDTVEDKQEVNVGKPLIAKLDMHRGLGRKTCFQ
Caspase-9, sequence (P55211 whole entry, species assumed, the tested form may be a part): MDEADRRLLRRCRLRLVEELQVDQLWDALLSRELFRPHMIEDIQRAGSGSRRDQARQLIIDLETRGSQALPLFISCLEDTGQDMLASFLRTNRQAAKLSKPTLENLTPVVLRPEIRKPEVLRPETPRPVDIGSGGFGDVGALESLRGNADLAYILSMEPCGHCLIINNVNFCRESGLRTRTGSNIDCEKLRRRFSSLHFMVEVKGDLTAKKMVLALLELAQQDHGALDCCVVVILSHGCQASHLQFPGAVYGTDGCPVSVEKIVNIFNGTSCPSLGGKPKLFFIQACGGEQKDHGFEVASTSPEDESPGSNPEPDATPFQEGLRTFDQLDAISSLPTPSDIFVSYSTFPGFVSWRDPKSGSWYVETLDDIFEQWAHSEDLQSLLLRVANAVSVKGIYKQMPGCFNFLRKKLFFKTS

Q: What does the source list for `COCCOc1nc(-c2ccc(Cl)c(Cl)c2)n(-c2ccc(NC(=O)CCl)cc2)n1` [MI-2]?
A: GI25 concentrations ([1]; 48 hr): high nanomolar range; suppression of cell proliferation, ABC-DLBCL vs GCB-DLBCL cell lines ([1]; 48 hr after a single dose, increasing concentrations): significant selective dose-dependent suppression of ABC-DLBCL cells; activity against Caspase-9 (Caspase-9): little activity; binding by NMR spectroscopy [2]: robust interaction; nuclear c-REL (c-REL; isolated nuclei): reduced nuclear c-REL; whole cell c-REL (c-REL; whole cells): without affecting whole cell levels; apoptosis (Caspase-3/7 cleavage) [3]: dose dependent apoptosis within 48 hr
